We go through 43 compounds from patent US20080139664A1, “ANTI-GLYCATION AGENTS FOR PREVENTING AGE-, DIABETES-, AND SMOKING-RELATED COMPLICATIONS” (NATIONAL RESEARCH COUNCIL OF CANADA, priority 2001, published 2008).

Counter-ions that a name gives are not always drawn. Like-named read-outs stand apart in the source and are kept apart here.

Data set [1] concerns bovine serum albumin (BSA). The data set is described as follows: Maillard fluorescence-based assay of AGEs formation, IC50 determination (BSA + D-ribose). The following applies: for maximum percentage of the inhibition: Maillard fluorescence, listed if significantly lower than 100%.
Protocol: During the glycation reaction between proteins and reducing sugars, a specific fluorescence with excitation and emission wavelength of 370 nm and 440 nm, respectively, is observed. […] The assay was based on the progressive development of the characteristic Maillard fluorescence (370 nm Ex and 440 nm Em) during the progress of the glycation reaction.
The final assay volume was 200 μl and each assay well contained 0.075 mM BSA, and 50 mM D-ribose. Compounds were assayed at 3 different concentration levels (0.003, 0.03, and 0.3 mg/mL) to determine the effect of concentration on inhibition. Samples were incubated for 5 days.
The Maillard fluorescence was directly measured from the reaction solution, except for the anti-glycants that quenched the Maillard fluorescence, which were analyzed by the earlier-described HPLC method.
Solutions were incubated in microtitre plates (96 wells) at 37° C. for 5 days in a closed system.
After one hour incubation at 37° C., fluorescence readings were taken.
The IC50 values of the compounds that quenched the fluorescence of the glycated BSA were analyzed by on-line monitoring of the fluorescence of the glycated BSA separated from the fluorescence quenching assay compound by RP-HPLC. The elution profile was monitored by UV-diode array and by fluorescence (λex=370 nm, λem=440 nm). […] The incubation conditions were the same as above.
The subject of data set [2] is lysozyme. The data set is described as follows: ESI-MS of lysozyme glycoforms after incubation with D-ribose.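 On all read-outs here: lysozyme incubated with D-ribose, with or without anti-glycation agents, then separated by reversed-phase HPLC and analysed by electrospray mass spectrometry.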 The following applies: 37° C., 5 days; for Peak area as % of total area of all glycoforms, 14,569: lysozyme + 2D-ribose − 2H2O (14,569 Da); for Peak area as % of total area of all glycoforms, 14,551: lysozyme + 2D-ribose − 3H2O (14,551 Da); for Peak area as % of total area of all glycoforms, 14,533: lysozyme + 2D-ribose − 5H2O (14,533 Da); for Peak area as % of total area of all glycoforms, 14,515: lysozyme + 2D-ribose − 6H2O (14,515 Da); for Peak area as % of total area of all glycoforms, 14,419: lysozyme + D-ribose − 2H2O (14,419 Da); for Peak area as % of total area of all glycoforms, 14,401: lysozyme + D-ribose − 3H2O (14,401 Da); for Peak area as % of total area of all glycoforms, 14,437: lysozyme + D-ribose − H2O (14,437 Da); for Peak area as % of total area of all glycoforms, 14,496: lysozyme + D-ribose − H2O with one carboxymethylated Lys residue (14,496 Da); for Peak area as % of total area of all glycoforms, 14,364: lysozyme with one carboxymethylated Lys residue (14,364 Da); for Peak area as % of total area of all glycoforms, 14,305: unmodified lysozyme (14,305 Da).
Protocol: The effect of anti-glycation agents on the accumulation of glycated forms (glycoforms) of protein was evaluated by using electrospray mass spectrometry (ESI-MS). As the molecular mass of BSA was too large to monitor the small mass changes of its glycoforms, lysozyme was incubated with D-ribose and anti-glycants. Lysozyme and its glycoforms were isolated by RP-HPLC and analyzed by mass spectrometry.
Samples of lysozyme (0.756 mM; 4.54 mM of Lys residues) and D-ribose (50 mM) were incubated in the presence and absence of the selected anti-glycation agents at 37° C. for 5 days and subjected to electrospray mass spectrometry (ESI-MS) in order to characterize the protein intermediates as well as carboxymethylated lysozyme. Prior to MS measurements, the proteins were isolated by reversed phase-HPLC and were semi-dried by freeze drying.

Where [3] appears, read: inhibition of Maillard fluorescence development, 0.075 mM BSA, 50 mM D-ribose, 37° C., 5 days.

Regarding `COC1=C[C@@H]2[C@@H]3Cc4ccc(OC)c(O)c4[C@]2(CCN3C)CC1=O` [Sinomenine], the IC50 in data set [1] (setting [3]) was more than 4000 µM. Regarding `O=c1cc(-c2ccc(O)c(O)c2)oc2ccc(O)cc12` [6,3′,4′-Trihydroxyflavone], the IC50 in data set [1] (setting [3]) was more than 4000 µM. For the same compound, in data set [2], the “Peak area as % of total area of all glycoforms, 14,569” value (“Peak area as % of total area … 14,569” for short) turned out to be 4.0%; the “Peak area as % of total area of all glycoforms, 14,551” value (from here on “Peak area as % of total area … 14,551”) is on record as 4.0%; the “Peak area as % of total area of all glycoforms, 14,533” value (from here on “Peak area as % of total area … 14,533”) came out at 1.6%; the “Peak area as % of total area of all glycoforms, 14,515” value (from here on “Peak area as % of total area … 14,515”) is 0.6%. For the same compound, in data set [2], the “Peak area as % of total area of all glycoforms, 14,419” value (from here on “Peak area as % of total area … 14,419”) is 8.8%; the “Peak area as % of total area of all glycoforms, 14,401” value (from here on “Peak area as % of total area … 14,401”) came out at 0.3%; the “Peak area as % of total area of all glycoforms, 14,437” value (from here on “Peak area as % of total area … 14,437”) came out at 21.5%; the “Peak area as % of total area of all glycoforms, 14,496” value (from here on “Peak area as % of total area … 14,496”) was determined as 0.0%. Moreover, in data set [2], the “Peak area as % of total area of all glycoforms, 14,364” value (from here on “Peak area as % of total area … 14,364”) came out at 2.0% and the “Peak area as % of total area of all glycoforms, 14,305” value (from here on “Peak area as % of total area … 14,305”) was 56.4%. In the case of `C[C@H](N)[C@H](O)c1ccc(O)c(O)c1` [Corbadrine], the IC50 in data set [1] (setting [3]) turned out to be 52 µM. Take `O=[N+]([O-])c1ncc[nH]1` [2-Nitroimidazole]: in data set [1] (setting [3]), the IC50 was more than 4000 µM. With `COc1ccc(O)c(C(C)(C)C)c1` [BHA], in data set [1] (setting [3]), the IC50 was more than 4000 µM. On to `Cc1cc(-c2ccc(/N=N/c3ccc4c(S(=O)(=O)O)cc(S(=O)(=O)O)c(N)c4c3O)c(C)c2)ccc1/N=N/c1ccc2c(S(=O)(=O)O)cc(S(=O)(=O)O)c(N)c2c1O` [Evans blue], for which the IC50 in data set [1] (setting [3]) was determined as 3700 µM. In the case of `O=c1c2ccccc2[se]n1-c1ccccc1` [Ebselen], the IC50 in data set [1] (setting [3]) is more than 4000 µM. On the same count and under the same terms, as for `Cc1c(C)c2c(c(C)c1O)CCC(C)(C(=O)O)O2` (stereo not shown) [Trolox C], the figure is 470 µM; as for `NC(=O)c1ccc([N+](=O)[O-])cc1Cl` [Aklomide], 350 µM.

For `O=c1c(-c2ccc(O)cc2)coc2cc(O)cc(O)c12` [Genistein], the IC50 in data set [1] (setting [3]) stood at 450 µM. As to `COc1ccc(-c2cc(=O)c3c(O)cc(O)cc3o2)cc1` [Acacetin], in data set [1] (setting [3]), the IC50 turned out to be 510 µM. Still for that read-out and setting: as for `CC(CCc1ccccc1)NC(C)C(O)c1ccc(O)cc1` (stereo not shown) [Nylidrin], the figure is 1800 µM; as for `O=c1c(O)c(-c2ccc(O)c(O)c2)oc2cc(O)cc(O)c12` [Quercetin], 130 µM.

For the compound `O=[N+]([O-])c1cc([As](=O)(O)O)ccc1O` [Roxarsone], the IC50 in data set [1] (setting [3]) was determined as 230 µM. In data set [2], the “Peak area as % of total area … 14,569” value is given as 5.1%; the “Peak area as % of total area … 14,551” value was 1.3%; the “Peak area as % of total area … 14,533” value came out at 1.2%; the “Peak area as % of total area … 14,515” value amounted to 0.0%. Moreover, in data set [2], the “Peak area as % of total area … 14,419” value is recorded as 3.1%; the “Peak area as % of total area … 14,401” value turned out to be 0.0%; the “Peak area as % of total area … 14,437” value stood at 27.0%; the “Peak area as % of total area … 14,496” value was found to be 0.0%. In addition, in data set [2], the “Peak area as % of total area … 14,364” value amounted to 0.0% and the “Peak area as % of total area … 14,305” value is reported as 62.4%. In the case of `O=C1c2c(O)cc(O)cc2O[C@H](c2ccc(O)c(O)c2)[C@H]1O` [Taxifolin], the IC50 in data set [1] (setting [3]) amounted to 100 µM. As to `Cc1cc2c(OCC(CNC(C)(C)C)OC(=O)c3ccccc3)cccc2[nH]1` (stereo not shown) [Bopindolol], the IC50 in data set [1] (setting [3]) was found to be 170 µM. Regarding D,L-Epinephrine, in data set [1], the IC50 is 15 µM. Regarding `NC(=O)c1cc([N+](=O)[O-])cc([N+](=O)[O-])c1` [3,5-Dinitrobenzamide], the IC50 in data set [1] (setting [3]) came out at 780 µM. Regarding `CN1CC(O)C2=C/C(=N/NC(N)=O)C(=O)C=C21` (stereo not shown) [Carbazochrome], the 50% inhibitory concentration (IC50) in data set [1] (setting [3]) is 3500 µM. On the same count and under the same terms, as for `N[C@@H](Cc1cc(I)c(O)c(I)c1)C(=O)O` [3,5-Diiodo-L-tyrosine], the figure is 1500 µM. Still for that read-out and setting: for `Oc1ccc(Cl)c2cccnc12` [Cloxiquine] the value was 440 µM; for `COc1ccc(-c2coc3cc(O)cc(O)c3c2=O)cc1` [Biochanin A], 290 µM. `CC(CCc1ccccc1)NC(CO)c1ccc(O)c(O)c1` (stereo not drawn) [3,4-Dihydroxy-1-[α-(1-methyl-3-phenyl-propylamino)-β-hydroxyethyl]benzene hydrochloride]: the IC50 in data set [1] (setting [3]) was 350 µM. Regarding `Cc1cc2c(C(C)C)c(O)c(O)c(C=O)c2c(O)c1-c1c(C)cc2c(C(C)C)c(O)c(O)c(C=O)c2c1O` [Gossypol], in data set [1] (setting [3]), the half-inhibitory concentration (IC50) is 110 µM. As to `O=[N+]([O-])c1cc(I)c(O)c(I)c1` [2,6-Diiodo-4-nitrophenol], the IC50 in data set [1] (setting [3]) was determined as 1300 µM. Same read-out and setting: for `COCC(N)c1ccc(O)c(O)c1` (stereo not drawn) [3,4-Dihydroxy-1-[(α-amino-β-methoxy)ethyl]benzene] the value was 78 µM; for `O=[N+]([O-])c1ccc(O)cc1` [p-Nitrophenol], more than 4000 µM; for `CC(CCc1ccccc1)NCC(=O)c1ccc(O)c(O)c1` (stereo not drawn) [α-(1-Methyl-3-phenyl-propylamino)-3,4-dihydroxyacetophenone hydrochloride], 890 µM. As for `Cn1c([N+](=O)[O-])cnc1COC(N)=O` [Ronidazole], the IC50 in data set [1] (setting [3]) worked out at 950 µM. Consider `NCCc1cc(O)c(O)cc1O` [6-Hydroxydopamine], for which the “maximum percentage of the inhibition” value in data set [1] is on record as 65%). Further, the IC50 in data set [1] (setting [3]) was 95 µM. Regarding `Nc1ccc(C(=O)O)c(O)c1` [4-Amino-salicylic acid], the IC50 in data set [1] (setting [3]) is more than 4000 µM. The same measure, in the same setting: as for Pyrithioxin, the figure is more than 4000 µM; as for `CC[C@@]1(O)C[C@H](O[C@H]2C[C@H](N(C)C)[C@H](O[C@H]3C[C@H](O)[C@H](O[C@H]4CCC(=O)[C@H](C)O4)[C@H](C)O3)[C@H](C)O2)c2c(cc3c(c2O)C(=O)c2c(O)cccc2C3=O)[C@H]1C(=O)OC` [Aclarubicin], 2500 µM. With `CCOC(=O)[C@@H](N)CS` [L-Cysteine ethyl ester], the IC50 in data set [1] (setting [3]) was more than 4000 µM. The same measure, in the same setting: for `CCCCCCCCCCCCCCCC(=O)OC[C@@H](NC(=O)C(Cl)Cl)[C@H](O)c1ccc([N+](=O)[O-])cc1` [Chloramphenicol palmitate] the value was more than 4000 µM.

Regarding `Nc1ncc([N+](=O)[O-])cn1` [2-Amino-5-nitropyrimidine], the IC50 in data set [1] (setting [3]) is 810 µM. In addition, in data set [2], the “Peak area as % of total area … 14,569” value was determined as 4.7%; the “Peak area as % of total area … 14,551” value is 3.8%; the “Peak area as % of total area … 14,533” value stood at 2.0%; the “Peak area as % of total area … 14,515” value was 0.9%. Further, in data set [2], the “Peak area as % of total area … 14,419” value stood at 7.7%; the “Peak area as % of total area … 14,401” value is 0.0%; the “Peak area as % of total area … 14,437” value is on record as 23.0%; the “Peak area as % of total area … 14,496” value came to 0.0%. In data set [2], the “Peak area as % of total area … 14,364” value is 3.6% and the “Peak area as % of total area … 14,305” value is listed as 52.9%. As for `C=CCN1CC[C@]23c4c5ccc(O)c4O[C@H]2/C(=N/N=C2\CC[C@@]4(O)[C@H]6Cc7ccc(O)c8c7[C@@]4(CCN6CC=C)[C@H]2O8)CC[C@@]3(O)[C@H]1C5` [Naloxonazine], in data set [1] (setting [3]), the IC50 was 1700 µM. Turning to `O=c1cc(-c2ccc(O)c(O)c2)oc2ccccc12` [3′.4′-Dihydroxyflavone], the IC50 in data set [1] (setting [3]) is 2600 µM. Turning to `NC(=O)N/N=C/c1ccc([N+](=O)[O-])o1` [Nitrofurazone], in data set [1], the “maximum percentage of the inhibition” value is 50%). Moreover, the IC50 in data set [1] (setting [3]) amounted to 46 µM. In data set [2], the “Peak area as % of total area … 14,569” value is 4.2%; the “Peak area as % of total area … 14,551” value was determined as 2.8%; the “Peak area as % of total area … 14,533” value turned out to be 2.4%; the “Peak area as % of total area … 14,515” value is on record as 1.1%. Besides, in data set [2], the “Peak area as % of total area … 14,419” value is reported as 5.8%; the “Peak area as % of total area … 14,401” value came to 0.0%; the “Peak area as % of total area … 14,437” value is listed as 21.4%; the “Peak area as % of total area … 14,496” value came to 0.0%. Besides, in data set [2], the “Peak area as % of total area … 14,364” value worked out at 1.6% and the “Peak area as % of total area … 14,305” value was 60.8%. On to `CC(=O)Nc1ncc([N+](=O)[O-])s1` [Aminitrozole], for which the IC50 in data set [1] (setting [3]) was 82 µM. Same read-out and setting: for `O=c1c(O)c(-c2ccc(O)c(O)c2)oc2ccccc12` [3,3′,4′-Trihydroxyflavone] the value was 1800 µM.

With `COC(CNC(C)C)c1ccc(O)c(O)c1` (stereo not drawn) [3,4-Dihydroxy-1-[α-isopropylamino-β-methoxy)ethyl]benzene], in data set [1] (setting [3]), the IC50 was found to be 78 µM. `O=C1CCN(c2ccccc2)N1` [Phenidone]: the IC50 in data set [1] (setting [3]) turned out to be 1300 µM.
